The values that follow come from US20100305068A1, “COMPOUNDS AND METHODS FOR MODULATING PROTEIN TRAFFICKING” (priority 2006, published 2010).

Read-outs that look alike come from different tables or passages of the source.

In this assay the test system is pdr5 ypt1^ts cells. Nature of the assay: microbe, parasite or virus in culture. The format is cell-based, yeast. Particulars: 37° C.; for optical density, 3.13 uM / optical density, 12.5 uM / optical density, 50 uM: Table 3, background (0 uM) 0.077; for optical density, 3.13 uM: 3.13 uM compound; for optical density, 12.5 uM: 12.5 uM compound; for optical density, 50 uM: 50 uM compound; for optical density, ypt1-ts, 0.39 / optical density, ypt1-ts, 0.78 / optical density, ypt1-ts, 1.56 / optical density, ypt1-ts, 3.13 / optical density, ypt1-ts, 6.25 / optical density, ypt1-ts, 12.5 / optical density, ypt1-ts, 25 / minimal effective concentration: Table 2; for optical density, ypt1-ts, 0.39: 0.39 μM compound; for optical density, ypt1-ts, 0.39 / optical density, ypt1-ts, 0.78 / optical density, ypt1-ts, 1.56 / optical density, ypt1-ts, 3.13 / optical density, ypt1-ts, 6.25 / optical density, ypt1-ts, 12.5 / optical density, ypt1-ts, 25: background (0 μM) 0.058; for optical density, ypt1-ts, 0.78: 0.78 μM compound; for optical density, ypt1-ts, 1.56: 1.56 μM compound; for optical density, ypt1-ts, 3.13: 3.13 μM compound; for optical density, ypt1-ts, 6.25: 6.25 μM compound; for optical density, ypt1-ts, 12.5: 12.5 μM compound; for optical density, ypt1-ts, 25: 25 μM compound; for minimal effective concentration: lowest concentration tested giving growth above the 0 μM background, read-out: ypt1-ts MRC (minimal rescue concentration). The method in brief: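 Whole-cell yeast growth-rescue screen: pdr5 ypt1^ts cells (efflux pump inactivated), growth-arrested at 37° C., cultured with compounds at 37° C. Restoration of growth read by optical density.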

Consider AVOCATIN A, for which the “optical density, 3.13 uM” value was 0.351; the “optical density, 12.5 uM” value came to 0.06; the “optical density, 50 uM” value is on record as 0.036.
For `COC(=O)C[C@H]1C(C)(C)C(=O)[C@@H]2CC3C4=CC(=O)O[C@@H](c5ccoc5)[C@]4(C)CCC3[C@]1(C)C2=O` (stereo partly drawn) [CARAPIN] the same measures were 0.22, 0.357 and 0.5.
The matching figures for `COC(=O)C[C@H]1C(C)(C)C(=O)[C@@H]2CC3=C4CC(OC)O[C@@H](c5ccoc5)[C@]4(C)CCC3[C@@]1(C)C2=O` (stereo partly drawn) [16-DEOXO- MEXICANOLIDE 16-METHYL ETHER]: 0.3, 0.528 and 0.55.
The matching figures for `CC(=O)O[C@@H]1CC2C(C)(C)[C@H](O)CC[C@]2(C)C2CC[C@@]3(C)[C@H](c4ccoc4)OC(=O)C4OC43[C@@]21C` (stereo partly drawn) [3alpha- HYDROXY- DEOXO- DIHYDRO- GEDUNIN]: 0.137, 0.25 and 0.146.
Turning to AVOCATIN B, the “optical density, 3.13 uM” value stood at 0.451; the “optical density, 12.5 uM” value was 0.032; the “optical density, 50 uM” value worked out at 0.032.
As to `COc1ccccc1-c1cc(=O)c2cccc(OC)c2o1` [8,2′- DIMETHOXY- FLAVONE], the “optical density, 3.13 uM” value stood at 0.083; the “optical density, 12.5 uM” value was 0.234; the “optical density, 50 uM” value was 0.674.
For `Nc1nc2ncc(=O)[nH]c2c(=O)[nH]1` [XANTHOP- TERIN] the same measures were 0.101, 0.23 and 0.073.
As for `O=C1c2c(O)ccc(O)c2C(=O)c2c(NCCNCCO)ccc(NCCNCCO)c21` [MITO- XANTHRONE HYDRO- CHLORIDE, reference compound], the “optical density, 3.13 uM” value is 0.149; the “optical density, 12.5 uM” value is listed as 0.132; the “optical density, 50 uM” value is 0.313.
In the case of FUSIDIC ACID [reference compound], the “optical density, ypt1-ts, 0.39” value came to 0.095; the “optical density, ypt1-ts, 0.78” value came to 0.081; the “optical density, ypt1-ts, 1.56” value amounted to 0.084; the “optical density, ypt1-ts, 3.13” value turned out to be 0.107. The “optical density, ypt1-ts, 6.25” value stood at 0.137; the “optical density, ypt1-ts, 12.5” value worked out at 0.296; the “optical density, ypt1-ts, 25” value was determined as 0.52; the minimal effective concentration turned out to be 6.25 µM.
As to `CC(=O)OCC[N+](C)(C)C.[Cl-]` [ACETYLCHOLINE, reference compound], the “optical density, ypt1-ts, 0.39” value stood at 0.104; the “optical density, ypt1-ts, 0.78” value stood at 0.087; the “optical density, ypt1-ts, 1.56” value is 0.085; the “optical density, ypt1-ts, 3.13” value was 0.113. The “optical density, ypt1-ts, 6.25” value is listed as 0.164; the “optical density, ypt1-ts, 12.5” value is on record as 0.27; the “optical density, ypt1-ts, 25” value turned out to be 0.352. Moreover, the minimal effective concentration (Saccharomyces cerevisiae) was 6.25 µM.
`COc1cc(C)c2c(=O)cc(-c3ccccc3)oc2c1` [METHOXYVONE]: the “optical density, ypt1-ts, 0.39” value was determined as 0.095; the “optical density, ypt1-ts, 0.78” value was found to be 0.09; the “optical density, ypt1-ts, 1.56” value came out at 0.09; the “optical density, ypt1-ts, 3.13” value was found to be 0.105. Besides, the “optical density, ypt1-ts, 6.25” value is recorded as 0.114; the “optical density, ypt1-ts, 12.5” value amounted to 0.142; the “optical density, ypt1-ts, 25” value turned out to be 0.258. The minimal effective concentration (Saccharomyces cerevisiae) worked out at 12.5 µM.
